Experimental data taken from patent publication US8513232B2, “Substituted spirocyclic piperidine derivatives as histamine-3 (H3) receptor ligands” (Cephalon, Inc., priority 2008, dated 2013).
Read-outs that look alike come from different tables or passages of the source.

Key:
[1] = biological target: T1, rat histamine H3 receptor (Rattus norvegicus, UniProt Q9QYN8); test: Rat H3 radioligand binding ([3H]-N-alpha-methylhistamine, SPA)
T1 construct: encoding the entire 445-amino-acid rat histamine H3 receptor; expressed in transfected cells; membrane preparation
In short: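 Membranes from CHO-A3 cells stably expressing full-length rat H3 receptor (10 μg protein/well) incubated 4 h at room temperature, protected from light, with ~1 nM [3H]-N-alpha-methylhistamine and compound (0.01 nM-30 μM) in 50 mM Tris HCl pH 7.4, 5 mM MgCl2, 0.1% BSA. Binding read by SPA; 10 μM clobenpropit defined non-specific binding.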

human H3 receptor = biological target: T2, human H3 receptor (Homo sapiens, UniProt Q9Y5N1); test: Human H3 radioligand binding ([3H]-N-alpha-methylhistamine, SPA); details: read-out: Human H3 Ki
T2 construct: expressed in transfected cells
In short: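 SPA competition binding on membranes from CHO cells stably expressing human H3 receptor (10 μg protein/well) with ~1 nM [3H]-N-alpha-methylhistamine and compound at 0.01 nM-30 μM. Incubation 4 h at room temperature in 50 mM Tris-HCl pH 7.4, 5 mM MgCl2, 0.1% BSA; non-specific binding defined with 10 μM clobenpropit.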

[2] = rat H3 binding, Table D, read-out: Rat H3 Ki

T2 sequence (Q9Y5N1 whole entry): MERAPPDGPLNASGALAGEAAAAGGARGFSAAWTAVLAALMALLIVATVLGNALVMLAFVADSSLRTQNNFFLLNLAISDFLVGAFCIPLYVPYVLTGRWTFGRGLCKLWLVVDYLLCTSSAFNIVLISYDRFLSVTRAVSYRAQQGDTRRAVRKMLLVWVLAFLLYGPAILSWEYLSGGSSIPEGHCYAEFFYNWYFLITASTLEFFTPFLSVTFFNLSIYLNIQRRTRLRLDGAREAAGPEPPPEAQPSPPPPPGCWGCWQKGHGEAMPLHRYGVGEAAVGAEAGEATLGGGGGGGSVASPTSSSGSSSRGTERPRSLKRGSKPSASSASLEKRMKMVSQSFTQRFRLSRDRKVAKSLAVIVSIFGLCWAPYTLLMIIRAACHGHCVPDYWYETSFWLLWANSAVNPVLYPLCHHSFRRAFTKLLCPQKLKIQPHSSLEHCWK
T1 sequence (Q9QYN8 whole entry): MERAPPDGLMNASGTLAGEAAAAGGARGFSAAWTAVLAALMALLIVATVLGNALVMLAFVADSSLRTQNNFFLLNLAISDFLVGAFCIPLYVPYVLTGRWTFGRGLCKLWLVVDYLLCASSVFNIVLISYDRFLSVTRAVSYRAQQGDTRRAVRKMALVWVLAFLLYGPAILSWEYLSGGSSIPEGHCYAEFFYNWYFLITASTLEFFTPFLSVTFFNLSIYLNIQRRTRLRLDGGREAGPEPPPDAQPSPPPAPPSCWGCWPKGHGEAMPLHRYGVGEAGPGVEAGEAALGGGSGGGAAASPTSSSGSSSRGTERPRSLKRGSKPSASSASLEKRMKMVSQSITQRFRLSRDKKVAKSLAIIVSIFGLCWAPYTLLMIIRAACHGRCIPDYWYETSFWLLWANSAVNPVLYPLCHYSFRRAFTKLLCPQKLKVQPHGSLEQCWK

Structure (SMILES)	Ki ([1]; read-out: Rat H3 kI) [µM]	Ki (human H3 receptor) [µM]	melting point	Ki [1, 2] [µM]	Ki (human H3 receptor; human H3 binding, Table D) [µM]
COc1ccc(-c2cc3c(cc2C)OC2(CCN(C4CCC4)CC2)OC3)cn1 [Example 544]	< 0.2	< 0.2	96 to 98 °C	–	–
Cn1ccc(-c2ccc3c(c2)COC2(CCN(C4CCC4)CC2)O3)cc1=O [Example 547]	< 0.2	< 0.2	208 to 209 °C	–	–
c1ccc(COc2cc(-c3ccc4c(c3)COC3(CCN(C5CCC5)CC3)O4)ccn2)cc1 [Example 548]	< 0.2	< 0.2	120 to 125 °C	–	–
COc1ccc(-c2ccc3c(c2C)COC2(CCN(C4CCC4)CC2)O3)cn1 [Example 551]	< 0.2	< 0.2	231 to 232 °C	–	–
Cc1c(-c2ccc(=O)[nH]c2)ccc2c1COC1(CCN(C3CCC3)CC1)O2 [Example 552]	< 0.2	< 0.2	246 to 249 °C	–	–
O=c1ccc(-c2ccc3c(c2)COC2(CCN(C4CCC4)CC2)O3)cn1Cc1ccccc1 [Example 553]	< 0.2	< 0.2	193 to 196 °C	–	–
O=c1ccc(-c2ccc3c(c2)COC2(CCN(C4CCC4)CC2)O3)cn1CC(F)F [Example 555]	< 0.2	< 0.2	65 to 70 °C	–	–
COC1(c2ccc3c(c2)COC2(CCN(C4CCC4)CC2)O3)CCC(F)(F)CC1 [Example 556]	< 0.2	< 0.2	116 to 118 °C	–	–
Cc1c(-c2cc[nH]c(=O)c2)ccc2c1COC1(CCN(C3CCC3)CC1)O2 [Example 558]	< 0.2	< 0.2	> 300 °C	–	–
COC1(c2ccc3c(c2)COC2(CCN(C4CCC4)CC2)O3)CCC1 [Example 559]	< 0.2	< 0.2	< 50 °C	–	–
O=C1CCC(c2ccc3c(c2)COC2(CCN(C4CCC4)CC2)O3)CN1CC(F)F (stereo not drawn) [Example 560]	0.2 to 1	0.2 to 1	120 to 126 °C	–	–
C=CCOC1(c2ccc3c(c2)COC2(CCN(C4CCC4)CC2)O3)CC(C(=O)N2CCCC2)C1 (stereo not drawn) [Example 561]	0.2 to 1	0.2 to 1	49 to 51 °C	–	–
O=C1CC(c2ccc3c(c2)COC2(CCN(C4CCC4)CC2)O3)CCN1 (stereo not drawn) [Example 565]	< 0.2	< 0.2	182 to 184 °C	–	–
Nc1ccc(-c2ccc3c(c2)COC2(CCN(C4CCC4)CC2)O3)cn1 [Example 566]	< 0.2	< 0.2	201 to 203 °C	–	–
O=C(O)c1cc(-c2ccc3c(c2)COC2(CCN(C4CCC4)CC2)O3)cs1 [Example 570]	–	–	230 to 240 °C (dec.)	< 0.2	< 0.2
COCCN(C)C(=O)c1ccc(-c2ccc3c(c2)COC2(CCN(C4CCC4)CC2)O3)cc1Cl [Example 577]	–	–	105 to 107 °C	< 0.2	< 0.2
COCCNC(=O)c1cc(-c2ccc3c(c2)COC2(CCN(C4CCC4)CC2)O3)cs1 [Example 578]	–	–	145 to 146 °C	< 0.2	< 0.2
O=C(NC[C@H]1CCCO1)c1ccc(-c2ccc3c(c2)COC2(CCN(C4CCC4)CC2)O3)cc1Cl [Example 579]	–	–	155 to 157 °C	< 0.2	< 0.2
CNC(=O)c1cc(-c2ccc3c(c2)CCC2(CCN(C4CCC4)C2)O3)ccc1Cl (stereo not drawn) [Example 581]	–	–	100 to 103 °C	0.2 to 1	< 0.2
CNC(=O)c1cc(-c2ccc3c(c2)COC2(CCN(C4CCC4)CC2)O3)ccc1Cl [Example 584]	–	–	198 to 200 °C	< 0.2	< 0.2
O=C(NC[C@@H]1CCCO1)c1ccc(-c2ccc3c(c2)COC2(CCN(C4CCC4)CC2)O3)cc1Cl [Example 585]	–	–	159 to 161 °C	< 0.2	< 0.2
O=C(NC[C@@H]1CCCO1)c1ccc(-c2ccc3c(c2)COC2(CCN(C4CCC4)CC2)O3)cc1F [Example 589]	–	–	128 to 130 °C	< 0.2	< 0.2
CNC(=O)c1ccc(-c2ccc3c(c2)COC2(CCN(C4CCC4)CC2)O3)nc1 [Example 590]	–	–	175 to 177 °C	< 0.2	< 0.2
CC(C)NC(=O)c1ccc(-c2ccc3c(c2)COC2(CCN(C4CCC4)CC2)O3)cc1Cl [Example 596]	–	–	186 to 187.5 °C	< 0.2	< 0.2
COC[C@H](C)NC(=O)c1ccc(-c2ccc3c(c2)COC2(CCN(C4CCC4)CC2)O3)cc1Cl [Example 598]	–	–	150 to 152 °C	< 0.2	< 0.2
O=C(NC[C@@H]1CCCO1)c1c(F)cc(-c2ccc3c(c2)COC2(CCN(C4CCC4)CC2)O3)cc1F [Example 599]	–	–	142 to 145 °C	< 0.2	< 0.2
O=C(N[C@H]1CCOC1)c1ccc(-c2ccc3c(c2)COC2(CCN(C4CCC4)CC2)O3)cc1 [Example 600]	–	–	205 to 207 °C	< 0.2	< 0.2

Further lines, results first:

Ki ([1]; read-out: Rat H3 kI) [µM]	Ki (human H3 receptor) [µM]	melting point	Ki [1, 2] [µM]	Ki (human H3 receptor; human H3 binding, Table D) [µM]	Structure (SMILES)
< 0.2	< 0.2	178 to 180 °C	–	–	COC(c1ccc2c(c1)COC1(CCN(C3CCC3)CC1)O2)C1CCS(=O)(=O)CC1 (stereo not drawn) [Example 545]
< 0.2	< 0.2	120 to 125 °C	–	–	CN1CC(c2ccc3c(c2)COC2(CCN(C4CCC4)CC2)O3)CCC1=O (stereo not drawn) [Example 550]
< 0.2	< 0.2	186 to 187 °C	–	–	OC1(c2ccc3c(c2)COC2(CCN(C4CCC4)CC2)O3)CCC(F)(F)CC1 [Example 554]
< 0.2	< 0.2	129 to 134 °C	–	–	CC(C)N1CC(c2ccc3c(c2)COC2(CCN(C4CCC4)CC2)O3)CCC1=O (stereo not drawn) [Example 563]
< 0.2	< 0.2	180 to 181 °C	–	–	O=C(C1CC(O)(c2ccc3c(c2)CCC2(CCN(C4CCC4)CC2)O3)C1)N1CCCC1 (stereo not drawn) [Example 569]
–	–	199.3 to 201.2 °C	< 0.2	< 0.2	CC(C)C(=O)NC1CCN(c2ccc3c(c2)CCC2(CCN(C4CCC4)CC2)O3)CC1 [Example 571]
–	–	62 to 64 °C	< 0.2	< 0.2	O=C(NC[C@H]1CCCO1)c1ccc(-c2ccc3c(c2)CCC2(CCN(C4CCC4)CC2)O3)cc1Cl [Example 572]
–	–	204.2 to 206.4 °C	< 0.2	< 0.2	CN(C)C(=O)NC1CCN(c2ccc3c(c2)CCC2(CCN(C4CCC4)CC2)O3)CC1 [Example 573]
–	–	85 to 87 °C	< 0.2	< 0.2	c1ncc(COc2ccc3c(c2)CCC2(CCN(C4CCC4)CC2)O3)s1 [Example 574]
–	–	101 to 104 °C	< 0.2	< 0.2	COCCN(C)C(=O)c1ccc(-c2ccc3c(c2)CCC2(CCN(C4CCC4)CC2)O3)cc1Cl [Example 575]
–	–	230 to 232 °C	< 0.2	< 0.2	CN(C)C(=O)N1CCC(COc2ccc3c(c2)CCC2(CCN(C4CCC4)CC2)O3)CC1 [Example 576]
–	–	196 to 198 °C	< 0.2	< 0.2	O=C(N[C@H]1CCOC1)c1ccc(-c2ccc3c(c2)CCC2(CCN(C4CCC4)CC2)O3)cc1 [Example 580]
–	–	89 to 91 °C	< 0.2	< 0.2	CNC(=O)c1cc(-c2ccc3c(c2)CCC2(CCN(C4CCC4)CC2)O3)ccc1Cl [Example 582]
–	–	78.4 to 80.2 °C	< 0.2	< 0.2	O=S(=O)(c1ccccc1)C1CCN(c2ccc3c(c2)COC2(CCN(C4CCC4)CC2)O3)CC1 [Example 583]
–	–	68.5 to 70.2 °C	< 0.2	< 0.2	CN(C)C(=O)CC1CCN(c2ccc3c(c2)COC2(CCN(C4CCC4)CC2)O3)CC1 [Example 586]
–	–	155 to 156 °C	< 0.2	< 0.2	CC(C)NC(=O)c1ccc(-c2ccc3c(c2)CCC2(CCN(C4CCC4)CC2)O3)cc1Cl [Example 587]
–	–	150.1 to 152.2 °C	< 0.2	< 0.2	COCCNC(=O)CC1CCN(c2ccc3c(c2)COC2(CCN(C4CCC4)CC2)O3)CC1 [Example 588]
–	–	120 to 122 °C	< 0.2	< 0.2	COC[C@H](C)NC(=O)c1ccc(-c2ccc3c(c2)CCC2(CCN(C4CCC4)CC2)O3)cc1Cl [Example 591]
–	–	292 to 294 °C	< 0.2	< 0.2	c1cc2c(cc1OCC1CCNCC1)CCC1(CCN(C3CCC3)CC1)O2 [Example 592]
–	–	187 to 189 °C	0.2 to 1	< 0.2	CN(C)C(=O)/C=C/c1ccc2c(c1)CCC1(CCN(C3CCC3)CC1)O2 [Example 594]
–	–	192 to 194 °C	< 0.2	< 0.2	CNC(=O)c1ccc(-c2ccc3c(c2)CCC2(CCN(C4CCC4)CC2)O3)nc1 [Example 595]
–	–	88.9 to 91.4 °C	< 0.2	< 0.2	OCC1CCN(c2ccc3c(c2)COC2(CCN(C4CCC4)CC2)O3)CC1 [Example 601]
–	–	183 to 185 °C	< 0.2	< 0.2	CN(C)C(=O)c1cccc(COc2ccc3c(c2)CCC2(CCN(C4CCC4)CC2)O3)c1 [Example 602]
